From a melting point compilation (Tetko et al.)

Compound | melting point [°C]
O=C1c2ccccc2C(=O)N1CCCO | 78
CCOC(=O)NN | 46
O=C(O)c1ccc(-c2cncnc2)cc1 | 316 to 317
CSc1nnc(C(C)(C)C)c(=O)n1N=CC(C)C | 159
NNC(=O)C(O)c1ccccc1 (centres undefined) | 130
OC(c1c2ccccc2cc2ccccc12)C(F)(F)F (centres undefined) | 142
CCc1cccc([N+](=O)[O-])c1 | -37.9
CCCCCCCCCCCCCCCCCCCl | 28.6
Fc1c(F)c(F)c(P(CCP(c2c(F)c(F)c(F)c(F)c2F)c2c(F)c(F)c(F)c(F)c2F)c2c(F)c(F)c(F)c(F)c2F)c(F)c1F | 190 to 195
N#Cc1ccc(O)c([N+](=O)[O-])c1 | 143 to 148
CCCCCCCCCCCCCC(CCCCCCCCCC)CCCCCCCCCC | 10.8
CC(=O)Oc1cccc(N=[N+]([O-])c2cccc(OC(C)=O)c2)c1 | 102
Cc1nc[nH]c1C=O | 165 to 166
NC(=S)CNC(=O)OCc1ccccc1 | 144 to 146
O=C(Oc1ccc2ccccc2c1-c1c(OC(=O)c2ccccc2)ccc2ccccc12)c1ccccc1 | 163 to 166
COC(=O)c1cccc(C#N)c1 | 65
O=C(O)CCC(=O)c1cccs1 | 121 to 122
O=Cc1c[nH]c2c(C(=O)O)cccc12 | 308 to 309
COc1ccc(C#N)c(OC(F)(F)F)c1 | 32
COc1ccccc1Oc1ccc(C(F)(F)F)cc1N | 28
COc1cc(C(c2ccc(C)o2)c2ccc(C)o2)c([N+](=O)[O-])cc1OC | 98
CCCOC(=O)C1=C(C)NC(C)=C(C(=O)OCCC)C1c1cccc(OC)c1O | 166 to 168
CCOC(=O)c1c(SC)nn(C(=O)c2ccc(OC)cc2)c1N | 160

Compound | melting point [°C]
Cc1c(C(C)C2NCC(C)CC2O)ccc2c1CC1C2CC=C2CC(O)CCC21C (centres undefined) | 206
C=Cc1c(SC)sc(C(=O)O)c1C | 172 to 174
CCOC(=O)c1ccc(COC(C)=O)o1 | 42.3
NC(c1ccccc1)(c1ccccc1)c1ccccc1 | 102
O=C1/C(=N/Nc2cccnc2)C(C(F)(F)F)=NN1c1ccccc1 | 161
CCCCc1ccc(NC(=O)c2ccc(OC)cc2)cc1 | 146 to 148
O=C(Nc1ccccc1C#CC#Cc1ccccc1NC(=O)c1ccccc1)c1ccccc1 | 211
CCOC(=O)C1=C(C)N=c2cc3c(cc21)=C(C(=O)OCC)C(C)=N3 | 342
CN(c1c(F)c(F)c(-c2c(F)c(F)c(F)c(F)c2F)c(F)c1F)N(O)O | 140
CC(OC/C(=N\NC(N)=O)c1ccccc1)=C(C#N)c1ccccc1 | 156 to 158
CCCC(c1ccc(O)cc1)c1ccc(O)cc1 | 137
Fc1cccc(F)c1 | -59
C=C(Br)c1ccccc1 | -44
Nc1cc(Br)ccn1 | 146
C[Si](C)(C)O[Si](C)(C)O[Si](C)(C)C | -80
Clc1cc2c(oc3c(Cl)c(Cl)c(Cl)c(Cl)c32)c(Cl)c1Cl | 233
Cc1ccccc1Oc1cccnn1 | 78
C=CCNC(N)=S | 78
CCCCCCCCCCCCCCCC(C)CC (centres undefined) | 1
CC1CC2=CC(=O)CCC2(C)C2CCC3(C)C(CCC3(C)O)C12 (centres undefined) | 164
CC/C=C/CCO | -61.5
NC(=O)c1ccccc1CO | 150
Cc1ccccc1/C=C(\C#N)c1nc2ccccc2s1 | 148

Compound | melting point [°C]
Fc1cc2c(cc1F)Oc1cc(Br)c(Br)cc1O2 | 210
COC(=O)c1ccc(C)c(OC)c1 | 49
COc1ccccc1Oc1ccccc1OC | 79.5
COC(=O)c1cc2c(OC)cccc2[nH]1 | 140 to 142
COc1ccc(S(=O)(=O)c2coc(S(N)(=O)=O)c2)cc1 | 118
Oc1ccc(F)c2cccnc12 | 110
CCCOC(=O)Cn1cc(I)c(=O)c(I)c1 | 186
COc1ccccc1C=C(C(=O)O)c1ccccc1 | 158
O=C(Nc1ccccc1)Nc1nnc(C(F)(F)F)s1 | 149 to 151
BrCCc1ccccc1 | -56
CON=O | -16
O=C(Oc1ccccc1C(=O)O)c1ccccc1O | 147
O=C(O)c1ccc2ccccc2c1O | 199 to 205
O=C(O)c1cc([N+](=O)[O-])cnc1O | 246
Cc1cccc(NC(=O)C(F)(F)F)c1C(=O)O | 168 to 169
CC(C)c1cccc(O)c1 | 26
CCCCCCCCCCCCSC(C(=O)Nc1cc(C)c(O)c(C)c1C)c1ccccc1 (centres undefined) | 130
Cc1ccc(-c2cc(N/N=C(/C(=O)c3cccs3)C(=O)C(F)(F)F)[nH]n2)cc1 | 220
ClCCCCCCCCCCCl | 15.6
OCC(CO)(CBr)CBr | 113
COc1ccc(C=Cc2ccccc2)cc1 | 135 to 138
Cc1noc(C)c1[N+](=O)[O-] | 57 to 60
Cc1nn(C(=O)OC(C)(C)C)c(C)c1I | 56 to 58

Further lines, results first:

melting point [°C] | Compound
293 to 294 | O=C(c1ccccc1)N1CCc2cc3c(cc21)CCN3C(=O)c1ccccc1
160 to 164 | O=C(O)C1(c2ccc(Cl)cc2)CCCC1
159 to 161 | O=[N+]([O-])c1c(N2CCCCC2)cc(Cl)c2nonc12
158 | Nc1ccc(Nc2ccc(N)cc2)cc1
-5 | ClC1CC2CCC1C2 (centres undefined)
108 | Cc1ccc([N+](=O)[O-])c(N)c1
64 to 65 | Clc1ncnc2sc3c(c12)CCCCC3
62 to 63 | O=S(=O)(Cl)c1ccc(Br)cc1C(F)(F)F
227 to 229 | Cc1c(Cl)c(C)c([N+](=O)[O-])c(O)c1Cl
146 | O=C(Nc1ccc(Cl)cc1)C(Cl)=C(Cl)Cl
59 to 65 | OCCc1c(Cl)cccc1Cl
36 | O=C(Cl)C=Cc1ccccc1
164 | CN(C)c1ccc(C2Nc3nc(C(F)(F)F)nn3C(N)=C2C#N)cc1 (centres undefined)
201 to 203 | O=C(O)c1cc(-c2ccc(Br)cc2)oc1C(F)(F)F
149 | O=C(O)c1cc(Cl)ccc1F
113 to 114 | Nc1cc(Cl)c(C(F)(F)F)cc1[N+](=O)[O-]
197 | Nc1ncnc2c1ncn2C1OC(CO)C(OP(=O)(O)O)C1O (centres undefined)
142 | CCOC(=O)CSCCC1NC(C(=O)O)CS1 (centres undefined)
50 to 52 | O=S(=O)(Cl)c1ccc2c(c1)OCCCO2
110 to 112 | Nc1cc(F)c(Cl)cc1N

melting point [°C] | Compound
57 | Cc1cc(-c2onc(C)c2C(=O)Cl)no1
121 | CC12CCC(C(OC(=O)c3ccc([N+](=O)[O-])cc3)=CC1=O)C2(C)C (centres undefined)
89.8 | CC(C)OC(=O)C1(S(=O)(=O)c2ccc(Cl)cc2)CC1
-130 | CCO[Si](Cl)(Cl)OCC
177 | CC(C)(C)OC(=O)NC1(C(=O)O)CCCCC1
170 to 171 | CC(=O)OC1CC[C@@]2(C)C(CC[C@@H]3[C@@H]2CC[C@@]2(C)[C@H]3CC[C@]2(O)C#Cc2ccccc2)C1 (some centres undefined)
70 | N#Cc1scc2c1OCCO2
188 | O=C1OC(=O)C2Cc3ccccc3CC12 (centres undefined)
52 | Oc1ccc(Cl)c(F)c1
86 | CCc1ccc(C(c2ccc(CC)o2)c2cc3c(cc2[N+](=O)[O-])OCCO3)o1
78 to 79 | CCOC(=O)c1c(Cl)cc(C)cc1N1CCCC1
218 | Nc1ccn(C2CCC(CO)O2)c(=O)n1 (centres undefined)
83 to 89 | COc1ccc2c(c1)CC2C(=O)O (centres undefined)
246 | CCCN(CCC)CCc1cccc2c1CC(=O)N2
50 | C=CC1CNC(=S)O1 (centres undefined)
83 | COC(=O)c1cc(C=O)oc1C
207 to 210 | O=C1OC(=O)c2ccc(Cl)c3cccc1c23
124 | Clc1nccc2ccc(Br)cc12
232 to 280 | CN1CCOc2cc(C(=O)O)cnc21
181 to 185 | CS(=O)(=O)c1csc(C(=O)Cl)c1Cl

melting point [°C] | Compound
-85 | C1=CCC=C1
126 | CS(=O)(=O)Nc1ccc2nn(C3CCCC3)nc2c1
208 | COc1cccc2c1C(=O)c1c(O)c3c(c(O)c1C2=O)CC(O)(C(C)=O)CC3OC1CC(N)C(O)C(C)O1 (centres undefined)
40.5 | Oc1ccc(C2CCCCC2)cc1Cl
83.5 | FC(F)(F)C(Cl)(Cl)C(Cl)(Cl)C(F)(F)F
126 to 129 | CC(C)(Oc1ccc(Cl)cc1)C(N)=O
129 to 131 | NC(=S)Cc1ccc(Cl)cc1
-10 | CC(C)C(C)(C)Cl
59 | CCCCCCC(C)OC(=O)COc1nc(F)c(Cl)c(N)c1Cl (centres undefined)
110 to 112 | c1ccc2c(c1)c1ccccc1n2CC1CO1 (centres undefined)
167 to 169 | Cc1cc2c(ccc3nonc32)nn1
169 | N[C@@H](CCC(=O)OCc1ccccc1)C(=O)O
148 to 151 | O=C(O)C(c1ccccc1)C1CCCCC1 (centres undefined)
66 to 68 | CN1CCOc2cc(S(=O)(=O)Cl)ccc21
116 to 119 | CCSc1sc(C(=O)OC)c2c1C(=O)CC(C)(C)C2
42 to 43 | Nc1cc(C(F)(F)F)cc(Cl)c1N
83 | OCC(CO)(CCl)CCl
27 | Cc1ccc(O)c(Cl)c1C
66 to 68 | COc1c(C(=O)Cl)csc1Cl
133 | CC(=O)N1C(=O)[C@@](O)([C@H]2c3ccccc3O[C@@H]2Cl)c2ccccc21
